Test results as given in patent publication US6172091A, “1,2-Disubstituted cyclopropanes” (Ortho-McNeil Pharmaceutical, Inc., priority 1999, dated 2001).

Key:
[1] = tested on: parathyroid hormone (PTH); assay: parathyroid hormone (PTH) suppression in a rat model; assay type: in vivo; conditions: 30 mg/kg test compound, levels measured after 15 minutes; for In Vivo: % blood serum PTH vs. vehicle: oral, 30 mg/kg; for change in vivo at 30 mg/kg: Rattus norvegicus, po, 0.25 h, read-out: In Vivo: % blood serum PTH vs. vehicle
Experimental: (§1) In vitro potency is measured via calcium mobilization in a fluorescence assay using HEK 293 cells transfected to express the same calcium sensing receptor as found in the human parathyroid gland. In this assay calcium-sensing receptor agonists and antagonists are detected. The assay is conducted in a 96-well plate format with the use of FLIPR (fluorescent imaging plate reader; Molecular Devices, Sunnyvale, Calif.). The HEK 293 cell media is replaced with the fluorescence dye FLUO-3AM and Pluronic detergent in FLIPR assay buffer. Cells are incubated 60 min (in the dark, at room temperature), then washed with assay buffer and placed in FLIPR. Images are collected by FLIPR in the absence of test compound, then in the presence of test compound (at 25 µM) and then after addition of a calcium challenge (at 1 mM). In the agonist assay the difference between maximum and minimum fluorescence values is measured following test compound addition. Hits have a change in fluorescence greater than or equal to 50% of that seen with a 1 mM calcium standard. In the antagonist assay the difference between maximum and minimum fluorescence values is measured following the calcium challenge addition. When compared to challenge in the absence of test compound, hits reduce fluorescence by at least 50%. In vivo activity is measured via parathyroid hormone (PTH) supression by test compounds in a rat model. Compound is administered orally using 0.5% Tween 80 in distilled water as vehicle, with a volume of approximately 10 mL/kg body weight. Blood samples are taken at 15 minutes (and 4 h if required) post oral dosing. Serum PTH levels are determined with an immunoradiometric assay.
(§2) Not all compounds were tested in each of the screens. […] Each entry represents a mixture of cis and trans cyclopropanes (R,S; S,R; R,R; S,S) with R absolute configuration when R^3=CH3. Table 2 lists compounds that are trans at the cyclopropane (R,R; S,S) with R absolute configuration at the benzylamine position, or without stereochemistry at the benzylamine. Table 3 lists compounds with R,R absolute stereochemistry at the cyclopropane and a mixture of stereochemistry at the benzylamine position. 20. In vitro data in Table 1 is percent activation of the calcium-sensing receptor versus baseline. In vitro data in Tables 2-7 is expressed as a CS50, where potency is at 50% of the calcium standard potency, and the unit is μM. In vivo data represents % blood serum PTH vs. vehicle at 30 mg/kg test compound, levels measured after 15 minutes.

[2] = biological target: T1, calcium sensing receptor as found in the human parathyroid gland (Homo sapiens, UniProt P41180); assay: calcium mobilization fluorescence (FLIPR) assay, agonist mode; assay type: cell-based; conditions: transfected HEK 293 cells; 1 mM calcium standard; Tables 2-7; read-out: In Vitro: CS50, where potency is at 50% of the calcium standard potency
T1 construct: expressed in transfected cells; host or cells: HEK 293
T1 sequence (P41180 20-1078): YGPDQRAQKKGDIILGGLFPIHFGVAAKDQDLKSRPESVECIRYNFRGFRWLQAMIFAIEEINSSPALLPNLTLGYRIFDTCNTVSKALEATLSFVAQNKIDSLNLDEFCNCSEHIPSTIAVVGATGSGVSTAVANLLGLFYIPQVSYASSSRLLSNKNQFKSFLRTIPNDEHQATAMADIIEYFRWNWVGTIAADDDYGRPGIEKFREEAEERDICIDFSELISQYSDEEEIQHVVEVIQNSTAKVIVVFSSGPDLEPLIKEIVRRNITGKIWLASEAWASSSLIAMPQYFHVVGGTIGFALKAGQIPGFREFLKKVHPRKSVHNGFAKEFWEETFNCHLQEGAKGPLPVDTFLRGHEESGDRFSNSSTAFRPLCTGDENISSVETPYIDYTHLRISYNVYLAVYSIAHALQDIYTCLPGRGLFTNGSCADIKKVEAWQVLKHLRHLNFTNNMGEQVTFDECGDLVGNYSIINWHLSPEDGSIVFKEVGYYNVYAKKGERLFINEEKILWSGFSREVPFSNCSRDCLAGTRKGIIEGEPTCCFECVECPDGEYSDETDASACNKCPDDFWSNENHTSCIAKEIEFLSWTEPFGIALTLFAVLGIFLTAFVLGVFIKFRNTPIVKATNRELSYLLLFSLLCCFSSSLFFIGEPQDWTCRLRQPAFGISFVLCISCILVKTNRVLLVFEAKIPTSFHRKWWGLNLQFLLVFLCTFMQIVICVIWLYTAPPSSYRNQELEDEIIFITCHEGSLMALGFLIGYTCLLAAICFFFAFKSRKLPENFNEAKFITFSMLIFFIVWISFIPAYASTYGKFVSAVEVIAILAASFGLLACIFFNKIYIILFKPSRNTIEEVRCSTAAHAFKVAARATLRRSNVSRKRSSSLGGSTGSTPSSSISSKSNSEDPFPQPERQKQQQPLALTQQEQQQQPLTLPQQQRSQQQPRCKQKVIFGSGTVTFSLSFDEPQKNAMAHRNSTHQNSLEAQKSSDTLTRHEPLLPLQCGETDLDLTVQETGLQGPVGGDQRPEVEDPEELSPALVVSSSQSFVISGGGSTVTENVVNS
Experimental: as §1, §2

## COc1cccc([C@@H](C)NCC2CC2c2cc(C)ccc2C)c1 (stereo partly shown) [Compound 33]
[1]
  In Vivo: % blood serum PTH vs. vehicle: -47.6%
[2]
  EC50: > 25 µM

## COc1cccc([C@@H](C)NC[C@H]2C[C@@H]2c2ccccc2)c1 [Compound 60]
[1]
  change in vivo at 30 mg/kg: -42.1%
[2]
  EC50: 12.9 µM

## COc1cccc([C@@H](C)NCC2CC2c2ccccc2C(F)(F)F)c1 (stereo partly shown) [Compound 14]
[1]
  change in vivo at 30 mg/kg: -34.7%
[2]
  EC50: 52.2 µM

## CC(NC[C@@H]1C[C@H]1c1ccccc1)c1cccc(C(F)(F)F)c1 (stereo partly shown) [Compound 41]
[1]
  change in vivo at 30 mg/kg: -21.4%
[2]
  EC50: > 25 µM

## COc1cccc([C@@H](C)N(C[C@@H]2C[C@H]2c2ccccc2)C(=O)CNC(=O)OC(C)(C)C)c1 [Compound 58]
[1]
  change in vivo at 30 mg/kg: -12.7%
[2]
  EC50: > 25 µM

## c1ccc([C@@H]2C[C@H]2CNCc2cccnc2)cc1 (relative stereo) [Compound 29]
[1]
  change in vivo at 30 mg/kg: 87.8%
[2]
  EC50: > 25 µM

## CCC(NC[C@@H]1C[C@H]1c1ccccc1)c1cccc(OC)c1 (stereo partly drawn) [Compound 43, N-((R,R)-2-phenylcyclopropanylmethyl)-1-(3-methoxyphenyl)propylamine]
[1]
  change in vivo at 30 mg/kg: -6.3%
[2]
  EC50: > 25 µM

## COc1cccc([C@@H](C)NCC2CC2c2c(F)cccc2F)c1 (stereo partly shown) [Compound 24]
[1]
  change in vivo at 30 mg/kg: -85.4%
[2]
  EC50: 11.9 µM

## CC(NC[C@@H]1C[C@H]1c1ccccc1)c1ccc2c(c1)OCO2 (stereo partly shown) [Compound 47]
[1]
  change in vivo at 30 mg/kg: -67.3%
[2]
  EC50: > 25 µM

## COc1cccc([C@H](C)NC[C@@H]2C[C@@H]2c2ccccc2)c1 [Compound 66]
[1]
  change in vivo at 30 mg/kg: -61.8%
[2]
  EC50: > 25 µM

## COc1cccc([C@@H](C)NCC2CC2c2cccs2)c1 (stereo partly shown) [Compound 25]
[1]
  change in vivo at 30 mg/kg: -89%
[2]
  EC50: 7.1 µM

## COc1cccc([C@@H](C)NCC2C(C)C2c2ccccc2)c1 (stereo partly shown) [Compound 67]
[1]
  change in vivo at 30 mg/kg: -92.9%
[2]
  EC50: 10.1 µM

## CCc1cccc(C(C)NC[C@@H]2C[C@H]2c2ccccc2)c1 (stereo partly shown) [Compound 42]
[1]
  change in vivo at 30 mg/kg: -78.9%
[2]
  EC50: > 25 µM

## COc1cccc([C@@H](C)NCC2CC2c2cccc(C)c2)c1 (stereo partly shown) [Compound 13]
[1]
  change in vivo at 30 mg/kg: -98.2%
[2]
  EC50: 9.5 µM

## COc1cccc([C@@H](C)NCC2CC2c2ccccc2F)c1 (single isomer, unassigned) [Compound 18]
[1]
  In Vivo: % blood serum PTH vs. vehicle: -83.9%
[2]
  EC50: 11.3 µM

## COc1cccc([C@@H](C)NCC2CC2c2ccc(C(F)(F)F)cc2)c1 (stereo partly shown) [Compound 16]
[1]
  change in vivo at 30 mg/kg: -14.4%
[2]
  EC50: > 25 µM

## COC(=O)N(C[C@@H]1C[C@H]1c1ccccc1)[C@H](C)c1cccc(OC)c1 [Compound 56]
[1]
  change in vivo at 30 mg/kg: -40.9%
[2]
  EC50: > 25 µM

## COc1cccc([C@H](C)NC[C@H]2C[C@@H]2c2ccccc2)c1 [Compound 64]
[1]
  change in vivo at 30 mg/kg: -11.7%
[2]
  EC50: > 25 µM

## COc1cccc([C@@H](C)NC[C@@H]2C[C@H]2c2cccc(F)c2)c1 [Compound 22]
[1]
  In Vivo: % blood serum PTH vs. vehicle: -93.4%
[2]
  EC50: 9.3 µM

## COc1cccc([C@@H](C)NC[C@H]2C[C@H]2c2ccccc2)c1 [Compound 62]
[1]
  change in vivo at 30 mg/kg: 0%
[2]
  EC50: 17.6 µM

## COc1cccc([C@@H](C)NCC2CC2c2cccc(C(F)(F)F)c2)c1 (stereo partly shown) [Compound 15]
[1]
  change in vivo at 30 mg/kg: 4.2%
[2]
  EC50: 13.5 µM

## COc1cccc(C(C)(C)NC[C@@H]2C[C@H]2c2ccccc2)c1 [Compound 44]
[1]
  change in vivo at 30 mg/kg: -25.8%
[2]
  EC50: > 25 µM

## COc1cccc([C@@H](C)NC[C@H]2C[C@H]2c2cc(C)ccc2C)c1 [Compound 69]
[1]
  change in vivo at 30 mg/kg: -53.9%
[2]
  EC50: > 25 µM

## COc1cccc([C@@H](C)NCC2CC2c2cc(C)ccc2C)c1 (stereo partly shown) [Compound 32]
[1]
  In Vivo: % blood serum PTH vs. vehicle: -13.5%
[2]
  EC50: 12.4 µM

## C[C@@H](NC[C@@H]1C[C@H]1c1ccccc1)c1cccc(OC2CCCC2)c1 [Compound 52]
[1]
  change in vivo at 30 mg/kg: 26.6%
[2]
  EC50: 12.2 µM

## COc1cccc([C@@H](C)NCC2CC2c2ccccc2C)c1 (stereo partly shown) [Compound 12]
[1]
  change in vivo at 30 mg/kg: -95.8%
[2]
  EC50: 8.8 µM
